The target in series [1] is T1, Chimera 5 (Cupriavidus necator, UniProt P14697, G33A/N37E/S38F/R40K/R41P/E46K, form not given).
T1 construct: gene phaB; AAR^Cn1 with segment G33-E46 replaced by A33-K46 of AAR^CAp (residues 36 and 44 conserved); E. coli BL21(DE3), IMAC
Nature of the series: initial rates and reaction progress curves, global fit. It counts as biochemical. The following applies: MOPS 50 mM, NaCl 5 mM, MgCl2 5 mM, pH 7.0, 30 °C. The text has this: initial rates and reaction progress curves, global fit on Chimera 5

The target in series [2] is T2, Chimera 1 backbone (Chimera 2, Chimera 3, Chimera 4) (Cupriavidus necator, UniProt P14697, N37E/S38A/R40K/R41P, form not given).
T2 construct: gene phaB; AAR^Cn1 with N37-R41 replaced by E37-P41 of AAR^CAp (E37, F38, K40, P41 told in text); E. coli BL21(DE3), IMAC
The series can be described thus: reaction progress curve analysis, absorbance […] nm. It counts as biochemical. Conditions: AcAcCoA 2 mM, MOPS 50 mM, NaCl 5 mM, MgCl2 5 mM, pH 7.0, 30 °C, apparent kcat, read-out: Chimera3.

Series [3] deals with T3, Chimera 1 backbone (Chimera 2, Chimera 3, Chimera 4) (Cupriavidus necator, UniProt P14697, N37E/S38F/R40K/R41G, form not given).
T3 construct: gene phaB; AAR^Cn1 with N37-R41 replaced by E37-P41 of AAR^CAp (E37, F38, K40, P41 told in text); E. coli BL21(DE3), IMAC
The series is described as above. The class given is biochemical. The following applies: AcAcCoA 2 mM, MOPS 50 mM, NaCl 5 mM, MgCl2 5 mM, pH 7.0, 30 °C, apparent kcat, read-out: Chimera2.

Series [4] addresses T4, Chimera 1 backbone (Chimera 2, Chimera 3, Chimera 4) (Cupriavidus necator, UniProt P14697, N37E/S38E/R40Q/R41P, form not given).
T4 construct: gene phaB; AAR^Cn1 with N37-R41 replaced by E37-P41 of AAR^CAp (E37, F38, K40, P41 told in text); E. coli BL21(DE3), IMAC
The series is described as above. The class given is biochemical. Conditions: AcAcCoA 2 mM, MOPS 50 mM, NaCl 5 mM, MgCl2 5 mM, pH 7.0, 30 °C, apparent kcat, read-out: Chimera4.

The target in series [5] is T1, Chimera 5. The series is described as above. It counts as biochemical. Conditions: AcAcCoA 2 mM; MOPS 50 mM, NaCl 5 mM, MgCl2 5 mM, pH 7.0, 30 °C; apparent kcat; read-out: Chimera5.
Substrate in series [6]: NC(=O)C1=CN([C@@H]2O[C@H](COP(=O)(O)OP(=O)(O)OC[C@H]3O[C@@H](n4cnc5c(N)ncnc54)[C@H](OP(=O)(O)O)[C@@H]3O)[C@@H](O)[C@H]2O)C=CC1
The series can be described thus: purified protein. The class given is biochemical, Cupriavidus necator. The following applies: AcAcCoA 2 mM, MOPS 50 mM, NaCl 5 mM, MgCl2 5 mM, pH 7.0, 30 °C, apparent kcat, varied: cofactor.

Substrate in series [7]: NC(=O)C1=CN([C@@H]2O[C@H](COP(=O)(O)OP(=O)(O)OC[C@H]3O[C@@H](n4cnc5c(N)ncnc54)[C@H](O)[C@@H]3O)[C@@H](O)[C@H]2O)C=CC1
The series can be described thus: purified protein. Conditions: AcAcCoA 2 mM, MOPS 50 mM, NaCl 5 mM, MgCl2 5 mM, pH 7.0, 30 °C, apparent kcat, varied: cofactor. It counts as biochemical, Cupriavidus necator.

T1 sequence (P14697 whole entry G33A/N37E/S38F/R40K/R41P/E46K, form open): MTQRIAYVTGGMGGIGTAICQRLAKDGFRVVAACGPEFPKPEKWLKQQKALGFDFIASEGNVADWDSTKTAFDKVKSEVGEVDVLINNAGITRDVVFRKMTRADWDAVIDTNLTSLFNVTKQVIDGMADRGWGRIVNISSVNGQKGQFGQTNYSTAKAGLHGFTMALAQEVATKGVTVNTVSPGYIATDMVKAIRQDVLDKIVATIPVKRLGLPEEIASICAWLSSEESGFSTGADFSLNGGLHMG
T2 sequence (P14697 whole entry N37E/S38A/R40K/R41P, form open): as the sequence (P14697 whole entry G33A/N37E/S38F/R40K/R41P/E46K, form open) above, with A33G, F38A, K46E counted along it
T3 sequence (P14697 whole entry N37E/S38F/R40K/R41G, form open): as the sequence (P14697 whole entry G33A/N37E/S38F/R40K/R41P/E46K, form open) above, with A33G, P41G, K46E counted along it
T4 sequence (P14697 whole entry N37E/S38E/R40Q/R41P, form open): as the sequence (P14697 whole entry G33A/N37E/S38F/R40K/R41P/E46K, form open) above, with A33G, F38E, K40Q, K46E counted along it

Turning to `CC(=O)CC(=O)SCCNC(=O)CCNC(=O)[C@H](O)C(C)(C)COP(=O)(O)OP(=O)(O)OC[C@H]1O[C@@H](n2cnc3c(N)ncnc32)[C@H](O)[C@@H]1OP(=O)(O)O` [AcAcCoA], the Km in series [1] (NADH 1 mM, substrate inhibition model with KiS = KM) is 50 µM. Moreover, in series [1] (substrate inhibition, second site, NADPH 1 mM), the NADPH was 324 [195–465] µM.

Take `NC(=O)C1=CN([C@@H]2O[C@H](COP(=O)(O)OP(=O)(O)OC[C@H]3O[C@@H](n4cnc5c(N)ncnc54)[C@H](O)[C@@H]3O)[C@@H](O)[C@H]2O)C=CC1` [NADH]: the Km in series [2] turned out to be 886 µM; in series [3], 140 µM; in series [4], 618 µM; in series [5], 43 µM.

Turning to `NC(=O)C1=CN([C@@H]2O[C@H](COP(=O)(O)OP(=O)(O)OC[C@H]3O[C@@H](n4cnc5c(N)ncnc54)[C@H](OP(=O)(O)O)[C@@H]3O)[C@@H](O)[C@H]2O)C=CC1` [NADPH], the Km in series [2] was 1750 µM; in series [3] it was 1120 µM; in series [4], 120 µM; in series [5], 2790 µM.

B1: AAR^Cn1 (acetoacetyl-CoA reductase encoded by phaB1) (Cupriavidus necator H16) (protein)
chain: MTQRIAYVTGGMGGIGTAICQRLAKDGFRVVAGCGPNSPRREKWLEQQKALGFDFIASEGNVADWDSTKTAFDKVKSEVGEVDVLINNAGITRDVVFRKMTRADWDAVIDTNLTSLFNVTKQVIDGMADRGWGRIVNISSVNGQKGQFGQTNYSTAKAGLHGFTMALAQEVATKGVTVNTVSPGYIATDMVKAIRQDVLDKIVATIPVKRLGLPEEIASICAWLSSEESGFSTGADFSLNGGLHMG
notes: recombinant, expressed in E. coli BL21(DE3), purified by IMAC
Turning to B1, in series [6], the Km is 44 [40–49] µM; the kcat – broadly, the maximal rate divided by the concentration of active sites – worked out at 5.2 s⁻¹; the kcat/Km (in general, the turnover number divided by the Michaelis constant) is 118000 M⁻¹ s⁻¹. In addition, in series [7], the Km is 819 [688–975] µM, the kcat came out at 10.3 s⁻¹ and the kcat/Km worked out at 13000 M⁻¹ s⁻¹.

Values taken from paper PMC8904767, “Engineering an acetoacetyl-CoA reductase from Cupriavidus necator toward NADH preference under physiological conditions” (Scientific Reports, 2022).
